Results on one substance are retold here after patent publication US12214036B2, “Combination therapy comprising AXL/MER and PD-1/PD-L1 inhibitors” (Incyte Corporation, priority 2020, dated 2025).

Entries after “also recorded” stand apart in the source; their conditions may differ.

The test system of this experiment is human PBMCs co-cultured with H1299 cells. As to the kind of experiment: H1299 / PBMC co-culture cytokine assay. Type of experiment: cell-based. Conditions: 4 days, stimulated PBMCs + H1299, FIG. 6. The procedure: The ability of Compound 1 to cooperate with checkpoint blockade to further boost antitumor responses was evaluated. H1299 lung cancer cells were co-cultured with stimulated human PBMCs treated with Compound 1, anti-human programmed cell death (PD)-1 antibody retifanlimab or the combination, and production of proinflammatory cytokines was assessed in two different experiments (FIG. 6).
H1299 cells were co-cultured with human PBMCs, each at 4 or 16×10^4 cells/mL in RPMI containing 10% FBS, 100 U/mL of penicillin-streptomycin (ThermoFisher Scientific; #15140-122) and 1× beta-mercaptoethanol (ThermoFisher Scientific; #21985-023). Compound 1 or retifanlimab were added as single agents or in combination to the cells. Anti-CD3 (BD Biosciences #555336), anti-CD28 (BD Biosciences #555725) or SEA (Toxin Technology, Sarasota, Fla.; #AT101red) were added at a final concentration of 1 μg/mL, 0.5 μg/mL or 100 ng/mL, respectively, to stimulate cell growth. Cultures were incubated at 37° C. in 5% CO2 incubator for 4 days. The supernatant was collected for cytokine analysis using a multiplex assay system (custom human ProcartaPlex Luminex kit, ThermoFisher Scientific; #PPX-15-MXRWE6P).

For “retifanlimab: humanized, IgG4 monoclonal antibody that binds to human PD-1; heavy chain SEQ ID NO:2, light chain SEQ ID NO:3”, the proinflammatory cytokine production result is given as “induced these cytokines in a subset of donors; also recorded: induction of proinflammatory cytokines”.
